Numbers after ± are expanded uncertainties.
Experiments:
[1] = 101 kPa, Liquid, Vibrating tube method
[2] = xn = mol fraction of the nth substance listed; conditions: 101 kPa, Liquid, Vibrating tube method

CCCCO [butan-1-ol]
[1]
Conditions	mass density [kg/m3]
293.15 K	809.78 ± 0.24
298.15 K	806.05 ± 0.24
303.15 K	802.03 ± 0.24
313.15 K	794.12 ± 0.24

CCCCO [butan-1-ol] + CC(C)NC(C)C
[2], x2 = 0
Conditions	mass density [kg/m3]
293.15 K	809.78 ± 0.24
298.15 K	806.05 ± 0.24
303.15 K	802.03 ± 0.24
313.15 K	794.12 ± 0.24

CC(C)NC(C)C [diisopropylamine]
[1]
Conditions	mass density [kg/m3]
293.15 K	720.89 ± 0.24
298.15 K	715.35 ± 0.24
303.15 K	710.23 ± 0.24
313.15 K	699.71 ± 0.25

CC(C)NC(C)C [diisopropylamine] + CCCCCO
mass density [kg/m3], [2]
Conditions	293.15 K	298.15 K	303.15 K	313.15 K
x1 = 0.0815	809.89 ± 0.24	805.62 ± 0.24	801.64 ± 0.24	794.78 ± 0.24
x1 = 0.16	804.18 ± 0.24	799.78 ± 0.24	795.61 ± 0.24	788.52 ± 0.24
x1 = 0.2392	797.77 ± 0.24	793.23 ± 0.24	788.98 ± 0.24	780.98 ± 0.24
x1 = 0.35	787.88 ± 0.24	783.17 ± 0.24	778.74 ± 0.24	769.75 ± 0.24
x1 = 0.4401	779.23 ± 0.24	774.43 ± 0.24	769.93 ± 0.24	760.48 ± 0.24
x1 = 0.5597	767.21 ± 0.24	762.29 ± 0.24	757.69 ± 0.24	748.46 ± 0.24
x1 = 0.6498	757.9 ± 0.24	752.85 ± 0.24	748.14 ± 0.24	739.55 ± 0.24
x1 = 0.7356	748.9 ± 0.24	743.79 ± 0.24	738.95 ± 0.24	730.94 ± 0.24
x1 = 0.8497	736.82 ± 0.24	731.52 ± 0.24	726.57 ± 0.24	718.73 ± 0.24
x1 = 0.9379	727.48 ± 0.24	722.03 ± 0.24	716.97 ± 0.24	708.08 ± 0.25
x1 = 1	720.89 ± 0.24	715.35 ± 0.24	710.23 ± 0.24	699.71 ± 0.25

CC(C)NC(C)C [diisopropylamine] + CCCCO
mass density [kg/m3], [2]
Conditions	293.15 K	298.15 K	303.15 K	313.15 K
x1 = 0.0815	804.64 ± 0.24	800.71 ± 0.24	796.89 ± 0.24	789.72 ± 0.24
x1 = 0.1611	798.64 ± 0.24	794.65 ± 0.24	790.84 ± 0.24	783.86 ± 0.24
x1 = 0.2404	792.1 ± 0.24	788 ± 0.24	784.11 ± 0.24	777.07 ± 0.24
x1 = 0.3496	782.52 ± 0.24	778.41 ± 0.24	774.3 ± 0.24	767.06 ± 0.24
x1 = 0.44	774.49 ± 0.24	770.21 ± 0.24	766.09 ± 0.24	758.54 ± 0.24
x1 = 0.56	763.71 ± 0.24	759.1 ± 0.24	754.95 ± 0.24	747.2 ± 0.24
x1 = 0.6499	755.59 ± 0.24	750.61 ± 0.24	746.56 ± 0.24	738.57 ± 0.24
x1 = 0.74	747.35 ± 0.24	741.97 ± 0.24	737.86 ± 0.24	729.62 ± 0.24
x1 = 0.8484	736.91 ± 0.24	731.98 ± 0.24	727 ± 0.24	718.21 ± 0.24
x1 = 0.9384	727.64 ± 0.24	721.96 ± 0.24	717.35 ± 0.25	707.61 ± 0.25
x1 = 1	720.89 ± 0.24	715.35 ± 0.24	710.23 ± 0.24	699.71 ± 0.25

CC(C)NC(C)C [diisopropylamine] + CCCO
mass density [kg/m3], [2]
Conditions	293.15 K	298.15 K	303.15 K	313.15 K
x1 = 0.0813	796.38 ± 0.24	793.94 ± 0.24	791.19 ± 0.24	784.48 ± 0.24
x1 = 0.1608	791.55 ± 0.24	788.58 ± 0.24	785.66 ± 0.24	779.04 ± 0.24
x1 = 0.2398	785.63 ± 0.24	782.57 ± 0.24	779.21 ± 0.24	772.45 ± 0.24
x1 = 0.3497	777.13 ± 0.24	773.41 ± 0.24	769.55 ± 0.24	762.48 ± 0.24
x1 = 0.4398	769.26 ± 0.24	765.67 ± 0.24	761.55 ± 0.24	754.19 ± 0.24
x1 = 0.5546	760.03 ± 0.24	755.85 ± 0.24	751.48 ± 0.24	743.87 ± 0.24
x1 = 0.6487	752.32 ± 0.24	747.75 ± 0.24	743.28 ± 0.24	735.48 ± 0.24
x1 = 0.7383	744.72 ± 0.24	740.05 ± 0.24	735.49 ± 0.24	727.35 ± 0.24
x1 = 0.8491	735.16 ± 0.24	730.09 ± 0.24	725.47 ± 0.24	716.62 ± 0.24
x1 = 0.9395	726.79 ± 0.24	721.53 ± 0.24	716.61 ± 0.24	706.82 ± 0.25
x1 = 1	720.89 ± 0.24	715.35 ± 0.24	710.23 ± 0.24	699.71 ± 0.25

CC(C)NC(C)C [diisopropylamine] + CCO
mass density [kg/m3], [2]
Conditions	293.15 K	298.15 K	303.15 K	313.15 K
x1 = 0.0808	788.65 ± 0.24	783.48 ± 0.24	777.89 ± 0.24	767.17 ± 0.24
x1 = 0.1601	784.61 ± 0.24	779.32 ± 0.24	773.64 ± 0.24	762.87 ± 0.24
x1 = 0.2386	779.98 ± 0.24	774.56 ± 0.24	768.86 ± 0.24	758.28 ± 0.24
x1 = 0.3497	772.63 ± 0.24	767.12 ± 0.24	761.5 ± 0.2	751.13 ± 0.24
x1 = 0.4411	766.01 ± 0.24	760.55 ± 0.24	755.15 ± 0.24	744.76 ± 0.24
x1 = 0.5532	757.4 ± 0.2	752.37 ± 0.24	747.04 ± 0.24	736.47 ± 0.24
x1 = 0.65	749.49 ± 0.24	744.83 ± 0.24	739.74 ± 0.24	728.89 ± 0.24
x1 = 0.7395	742.16 ± 0.24	737.7 ± 0.24	732.71 ± 0.24	721.68 ± 0.24
x1 = 0.8478	733.27 ± 0.24	728.73 ± 0.24	723.74 ± 0.24	712.63 ± 0.25
x1 = 0.9385	725.8 ± 0.2	720.86 ± 0.24	715.91 ± 0.25	704.95 ± 0.25
x1 = 1	720.89 ± 0.24	715.35 ± 0.24	710.23 ± 0.24	699.71 ± 0.25

CC(C)NC(C)C [diisopropylamine] + CO
mass density [kg/m3], [2]
Conditions	293.15 K	298.15 K	303.15 K	313.15 K
x1 = 0.0808	789.98 ± 0.24	785.35 ± 0.24	779.68 ± 0.24	768.72 ± 0.24
x1 = 0.1599	786.75 ± 0.24	781.66 ± 0.24	776.01 ± 0.24	764.23 ± 0.24
x1 = 0.2399	782.33 ± 0.24	777.02 ± 0.24	771.2 ± 0.24	758.93 ± 0.24
x1 = 0.3477	774.9 ± 0.24	769.38 ± 0.24	763.6 ± 0.24	751.16 ± 0.24
x1 = 0.4444	767.44 ± 0.24	761.76 ± 0.24	756.06 ± 0.24	744.11 ± 0.24
x1 = 0.5563	757.92 ± 0.24	752.29 ± 0.24	746.8 ± 0.24	735.46 ± 0.24
x1 = 0.6507	749.84 ± 0.24	744.22 ± 0.24	738.78 ± 0.24	727.96 ± 0.24
x1 = 0.7388	742.2 ± 0.24	736.62 ± 0.24	731.3 ± 0.24	720.89 ± 0.24
x1 = 0.8482	732.94 ± 0.24	727.37 ± 0.24	722.19 ± 0.24	712.05 ± 0.25
x1 = 0.94	725.56 ± 0.24	719.98 ± 0.24	714.87 ± 0.24	704.62 ± 0.25
x1 = 1	720.89 ± 0.24	715.35 ± 0.24	710.23 ± 0.24	699.71 ± 0.25

CCO [ethanol]
[1]
Conditions	mass density [kg/m3]
293.15 K	792.17 ± 0.24
298.15 K	786.71 ± 0.24
303.15 K	781.3 ± 0.24
313.15 K	771.14 ± 0.24

CCO [ethanol] + CC(C)NC(C)C
[2], x2 = 0
Conditions	mass density [kg/m3]
293.15 K	792.17 ± 0.24
298.15 K	786.71 ± 0.24
303.15 K	781.3 ± 0.24
313.15 K	771.14 ± 0.24

CO [methanol]
[1]
Conditions	mass density [kg/m3]
293.15 K	791.72 ± 0.24
298.15 K	787.35 ± 0.24
303.15 K	782.24 ± 0.24
313.15 K	772.73 ± 0.24

CO [methanol] + CC(C)NC(C)C
[2], x2 = 0
Conditions	mass density [kg/m3]
293.15 K	791.72 ± 0.24
298.15 K	787.35 ± 0.24
303.15 K	782.24 ± 0.24
313.15 K	772.73 ± 0.24

CCCCCO [pentan-1-ol]
[1]
Conditions	mass density [kg/m3]
293.15 K	814.8 ± 0.24
298.15 K	810.82 ± 0.24
303.15 K	807.07 ± 0.24
313.15 K	799.4 ± 0.24

CCCCCO [pentan-1-ol] + CC(C)NC(C)C
[2], x2 = 0
Conditions	mass density [kg/m3]
293.15 K	814.8 ± 0.24
298.15 K	810.82 ± 0.24
303.15 K	807.07 ± 0.24
313.15 K	799.4 ± 0.24

CCCO [propan-1-ol]
[1]
Conditions	mass density [kg/m3]
293.15 K	800.03 ± 0.24
298.15 K	797.81 ± 0.24
303.15 K	795.05 ± 0.24
313.15 K	787.95 ± 0.24

CCCO [propan-1-ol] + CC(C)NC(C)C
[2], x2 = 0
Conditions	mass density [kg/m3]
293.15 K	800.03 ± 0.24
298.15 K	797.81 ± 0.24
303.15 K	795.05 ± 0.24
313.15 K	787.95 ± 0.24

— the NIST ThermoML archive (doi:10.1016/j.tca.2011.05.006)
